Marks after values point to notes of the source that are not given here.
Key:
Format in all cases: cell-based
[1] = system: TRAF6 mRNA in RAW264.7 cells; assay: RT-PCR, RANKL-induced mRNA expression of TRAF6; settings: for RANKL-induced mRNA expression level of TRAF6: RAW264.7 cells, 24 hours, CTL 100%, mean ± SEM
Text: (§1) The culture medium was discarded. […] [table] f) Running • A.

[2] = system: c-Fos mRNA in RAW264.7 cells; assay: RT-PCR, RANKL-induced mRNA expression of c-Fos; settings: for RANKL-induced mRNA expression level of c-Fos: RAW264.7 cells, 24 hours, CTL 100%, mean ± SEM
Text: as §1

[3] = system: NFATc1 mRNA in RAW264.7 cells; assay: RT-PCR, RANKL-induced mRNA expression of NFATc1; settings: for RANKL-induced mRNA expression level of NFATc1: RAW264.7 cells, 24 hours, CTL 100%, mean ± SEM
Text: as §1

[4] = system: Fra-2 mRNA in RAW264.7 cells; assay: RT-PCR, RANKL-induced mRNA expression of Fra-2; settings: for RANKL-induced mRNA expression level of Fra-2: RAW264.7 cells, 24 hours, CTL 100%, mean ± SEM
Text: as §1

RAW264.7 cells = assay: BrdU assay, proliferation induced by RANKL; settings: RAW264.7, 5 μM, 7.5 μM, 10 μM, FIG. 2
Procedure: The BrdU assay was followed the instructions of Cell Proliferation ELISA BrdU kit. 10^3 cells were plated per well in 96-well plates. […] After washing in wash buffer for three times, 100 μl/well Substrate reaction was added and incubated for 30 minutes at room temperature.

[5] = system: IκBα in cytoplasm of RAW264.7 cells; assay: Western blot, IκBα phosphorylation and hydrolysis induced by RANKL; settings: KMUP-1 in advance 24 hours, RANKL 30 minutes, FIG. 8(A)
Procedure: IκBα which originally binds with NF-κB to inhibit its activity in cytoplasm is stimulated by RANKL to be phosphorylized and be hydrolyzed after separating from NF-κB. Then, the free NF-κB transfers into a cell nucleus to play a role as a transcription factor. According to the experimental result, compared with the control group, in the group induced by RANKL for 30 minutes, the IκBα in the cytoplasm is obviously phosphorylized and hydrolyzed. […] According to the result, KMUP-1 can inhibit NF-κB activation induced by RANKL. Nuclear proteins were extracted according to the instructions of NE-PER kit. 2.5×10^6 cells were plated per well in 24-well plates. […] Subsequently, the cells were added by 5.5 μ[…] and shaken for 5 seconds and then put on ice for 1 minute. After that, the cells were shaken again for 5 seconds and centrifuged (10,000 rpm, 4° C., 5 minutes). Cytoplasm and Nuclei could be separated by this process, and the supernatant was cytoplasmic proteins, and the pallet was nuclei. The supernatant was stored in an eppendorf in -80° C. b) Extraction of Nuclear Proteins The nuclear pallet was added by 500 μl PBS and centrifuged (10,000 rpm, 4° C., 5 minutes), and the supernatant was discarded. The pallet could be washed by this process and prevented contamination. […]

[6] = system: NFATc1 protein in RAW264.7 cells; assay: Western blot, expression of NFATc1 induced by RANKL; settings: 5 μM, 7.5 μM and 10 μM, RANKL 24 hours, FIG. 13
Procedure: The proteins were collected by scraping and were centrifuged (13,000 rpm, 4° C., 30 minutes). The supernatant was stored in an eppendorf in −80° C. • c) Concentrations of the proteins were examined by Bio-Red DC Protein Assay. After knowing the concentrations, the proteins were diluted to specific concentrations by adding ddH2O. One forth volume of the diluted proteins of sample buffer was added into the diluted proteins and was put in boiled water for 5 min and then was chilled on ice for 5 minutes. After short time centrifugation, the diluted proteins could be injected into wells of a gel. The gel was run at 100 V for 10 minutes until the proteins were driven to the intersection between a loading gel and a running gel. Then, the voltage was swopped to 200 V for 40 minutes. • d) A PVDF membrane was immersed in Methanol for 2 minutes. After two washes in ddH2O, the membrane was immersed in transfer buffer for 15 minutes. A SDS-PAGE was put on the membrane, and wet paper was flanked them. The proteins were transferred to the PVDF membrane using a semi-dry transfer at 20 V for 30 minutes. • e) The band of the PVDF membrane was trimmed and was added by suitable amount of blocking buffer (5% skim milk in washing buffer) and then was shaken for 1 hour in room temperature to block non specific bindings. Then, the band was covered by a diluted 1° antibody overnight in 4° C. […]

[7] = 10 ng/ml RANKL, summary of Table 1

How did the “effect on mRNA expression of TRAF6 induced by RANKL (in words)” value [1, 7] turn out when `Cn1c(=O)c2c(ncn2CCN2CCN(c3ccccc3Cl)CC2)n(C)c1=O` [KMUP-1, 7-[2-[4-(2-Chlorophenyl)piperazin-1-yl]ethyl] theophylline] was run?
The value was “not obviously inhibits”.

And the “RANKL-induced mRNA expression level of TRAF6” value ([1]; RANKL 10 ng/ml + KMUP-1 1 μM)?
The value was 100.2 ± 4.7%.

What about the “RANKL-induced mRNA expression level of TRAF6” value ([1]; RANKL 10 ng/ml + KMUP-1 2.5 μM) of the same molecule?
The value was 123.8 ± 2.3%.

And the “RANKL-induced mRNA expression level of TRAF6” value ([1]; RANKL 10 ng/ml + KMUP-1 5 μM)?
The value was 125.9 ± 2.9% ^.

And the “RANKL-induced mRNA expression level of TRAF6” value ([1]; RANKL 10 ng/ml + KMUP-1 7.5 μM)?
The value was 128.4 ± 6.5% ^.

What about the “RANKL-induced mRNA expression level of TRAF6” value ([1]; RANKL 10 ng/ml + KMUP-1 10 μM) of the same molecule?
Its value is 127.2 ± 1.3% ^.

What about the “effect on mRNA expression of c-Fos induced by RANKL (in words)” value [2, 7] of the same molecule?
The value was “inhibits the mRNA expression”.

And the “RANKL-induced mRNA expression level of c-Fos” value ([2]; RANKL 10 ng/ml + KMUP-1 1 μM)?
Its value is 105.4 ± 8.1%.

What about the “RANKL-induced mRNA expression level of c-Fos” value ([2]; RANKL 10 ng/ml + KMUP-1 2.5 μM) of the same molecule?
Its value is 100.3 ± 4.7%.

What about the “RANKL-induced mRNA expression level of c-Fos” value ([2]; RANKL 10 ng/ml + KMUP-1 5 μM) of the same molecule?
The value was 84.5 ± 5.2% ^b.

What about the “RANKL-induced mRNA expression level of c-Fos” value ([2]; RANKL 10 ng/ml + KMUP-1 7.5 μM) of the same molecule?
The value was 67.1 ± 4.5% ^b.

What about the “RANKL-induced mRNA expression level of c-Fos” value ([2]; RANKL 10 ng/ml + KMUP-1 10 μM) of the same molecule?
The value was 73.1 ± 6.3% ^b.

What about the “effect on mRNA expression of NFATc1 induced by RANKL (in words)” value [3, 7] of the same molecule?
Its value is “inhibits the mRNA expression”.

And the “RANKL-induced mRNA expression level of NFATc1” value ([3]; RANKL 10 ng/ml + KMUP-1 1 μM)?
The value was 256.9 ± 7.5%.

What about the “RANKL-induced mRNA expression level of NFATc1” value ([3]; RANKL 10 ng/ml + KMUP-1 2.5 μM) of the same molecule?
The value was 184.7 ± 4.2% ^b.

What about the “RANKL-induced mRNA expression level of NFATc1” value ([3]; RANKL 10 ng/ml + KMUP-1 5 μM) of the same molecule?
The value was 161.8 ± 2.9% ^b.

And the “RANKL-induced mRNA expression level of NFATc1” value ([3]; RANKL 10 ng/ml + KMUP-1 7.5 μM)?
The value was 132.9 ± 2.4% ^b.

What about the “RANKL-induced mRNA expression level of NFATc1” value ([3]; RANKL 10 ng/ml + KMUP-1 10 μM) of the same molecule?
The value was 121.5 ± 4.5% ^b.

What about the “effect on mRNA expression of Fra-2 induced by RANKL (in words)” value [4, 7] of the same molecule?
The value was “not obviously inhibits”.

And the “RANKL-induced mRNA expression level of Fra-2” value ([4]; RANKL 10 ng/ml + KMUP-1 1 μM)?
Its value is 428.3 ± 38.5%.

What about the “RANKL-induced mRNA expression level of Fra-2” value ([4]; RANKL 10 ng/ml + KMUP-1 2.5 μM) of the same molecule?
The value was 490.5 ± 42.3%.

What about the “RANKL-induced mRNA expression level of Fra-2” value ([4]; RANKL 10 ng/ml + KMUP-1 5 μM) of the same molecule?
Its value is 488.2 ± 57.6% ^.

And the “RANKL-induced mRNA expression level of Fra-2” value ([4]; RANKL 10 ng/ml + KMUP-1 7.5 μM)?
Its value is 474.5 ± 52.1% ^.

And the “RANKL-induced mRNA expression level of Fra-2” value ([4]; RANKL 10 ng/ml + KMUP-1 10 μM)?
Its value is 496.6 ± 44.1% ^.

And the “cell proliferation induced by RANKL (BrdU assay)” value (RAW264.7 cells)?
The value was “can inhibit the cell proliferation induced by RANKL”.

And the “phosphorylation and hydrolysis of IκBα in cytoplasm induced by RANKL” value [5]?
The value was “can inhibit the effect of RANKL”.

And the “expression of NFATc1 induced by RANKL” value [6]?
The value was “can efficiently inhibit the expression of NFATc1 induced by RANKL”.

Source: patent US8507506B2, “Theophylline derivative inhibits osteoporosis” (Kaohsiung Medical University, priority 2011, dated 2013)
